{"source": "the METLIN SMRT retention time set (Domingo-Almenara et al. 2019)", "test": "gradient 5% acetonitrile 3 min, to 50% in 2 min, to 85% in 15 min, held 3 min, 100 µL/min", "conditions": "column: Zorbax Extend-C18 2.1 x 50 mm; eluents: water / acetonitrile, 0.1% formic acid", "method_in_brief": "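Over 3 months, pure standards in mixtures of ~100 molecules were run by HPLC coupled to a quadrupole time-of-flight mass spectrometer in positive and negative ionization mode. The column was a Zorbax Extend-C18 (2.1 × 50 mm, 1.8 μm) at 100 μL/min, eluted with water and acetonitrile each holding 0.1% formic acid, with 40 μL dead and 900 μL dwell volumes. Retention time was determined from adduct peaks chosen by software and checked manually.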"}
{"smiles": "CN1CC(=O)N(CC(=O)N2CCN(c3cccc(Cl)c3)CC2)c2ccccc2C1=O", "values": [{"measurement": "RP-LC retention time", "value": 747, "unit": "s"}]}
{"smiles": "CCNC(=O)N1CCC(c2noc(-c3ccccc3)n2)C1", "note": "(stereo unspecified)", "values": [{"measurement": "RP-LC retention time", "value": 724, "unit": "s"}]}
{"smiles": "CCc1ccc(CN2C(=O)c3ccccc3C2C(=O)NCCCOC)cc1", "note": "(stereo unspecified)", "values": [{"measurement": "RP-LC retention time", "value": 819, "unit": "s"}]}
{"smiles": "CCCC(NC(=O)c1sccc1C)C(=O)Nc1nc2ccccc2[nH]1", "note": "(stereo unspecified)", "values": [{"measurement": "RP-LC retention time", "value": 686, "unit": "s"}]}
{"smiles": "CCc1ccc(CNC(=O)c2cc3c(=O)n(C)c(=O)n(C)c3s2)cc1", "values": [{"measurement": "RP-LC retention time", "value": 830, "unit": "s"}]}
{"smiles": "COc1ccc(N2CCN(C(=O)CC(C)S(=O)(=O)c3ccc4c(c3)CCN4C(C)=O)CC2)cc1", "note": "(stereo unspecified)", "values": [{"measurement": "RP-LC retention time", "value": 754, "unit": "s"}]}
{"smiles": "COc1cccc(CNC(=O)NCCc2cn(C)c3ncccc23)c1", "values": [{"measurement": "RP-LC retention time", "value": 642, "unit": "s"}]}
{"smiles": "COC(=O)c1ccc2c(=O)n(CCc3ccccc3)c(N3CCC(C)CC3)nc2c1", "values": [{"measurement": "RP-LC retention time", "value": 1380, "unit": "s"}]}
{"smiles": "COc1cc(C2CC(=O)c3c([nH]c(C(=O)OCC4CCCCC4)c3C)C2)cc(OC)c1OC", "note": "(stereo unspecified)", "values": [{"measurement": "RP-LC retention time", "value": 1180, "unit": "s"}]}
{"smiles": "COC(=O)c1ccc(NS(=O)(=O)c2cccc(-c3nc(-c4ccc(C)cc4)no3)c2)cc1", "values": [{"measurement": "RP-LC retention time", "value": 1190, "unit": "s"}]}
{"smiles": "COC(=O)c1ccc(CN2N=C(C(=O)N3CCC(C)CC3)S(=O)(=O)c3ccccc32)o1", "values": [{"measurement": "RP-LC retention time", "value": 891, "unit": "s"}]}
{"smiles": "Cc1cccc2nnc(N3CCCC(C(=O)Nc4ccc5c(c4)OCCO5)C3)n12", "note": "(stereo unspecified)", "values": [{"measurement": "RP-LC retention time", "value": 669, "unit": "s"}]}
{"smiles": "O=C(CCC1CCN(S(=O)(=O)c2ccccc2)CC1)NCc1ccco1", "values": [{"measurement": "RP-LC retention time", "value": 776, "unit": "s"}]}
{"smiles": "CN(CCc1noc(C2CN(Cc3ccc(Cl)c(F)c3)C2)n1)S(C)(=O)=O", "values": [{"measurement": "RP-LC retention time", "value": 633, "unit": "s"}]}
{"smiles": "CC1=C(c2ccccc2)S(=O)(=O)N=C1N1CCCN(C(=O)COc2ccccc2)CC1", "values": [{"measurement": "RP-LC retention time", "value": 836, "unit": "s"}]}
{"smiles": "Cc1cc(C)cc(NS(=O)(=O)c2cc3n(c2)CCN(C)C3=O)c1", "values": [{"measurement": "RP-LC retention time", "value": 727, "unit": "s"}]}
{"smiles": "CCOc1ccc(NC(=O)NCCc2nc3cccnc3n2C2CCCC2)cc1", "values": [{"measurement": "RP-LC retention time", "value": 721, "unit": "s"}]}
{"smiles": "CC1=C(c2ccc(F)cc2)S(=O)(=O)N=C1N1CCCN(C(=O)C2CCOC2)CC1", "note": "(stereo unspecified)", "values": [{"measurement": "RP-LC retention time", "value": 886, "unit": "s"}]}
{"smiles": "CC(C)N1CCCn2cc(S(=O)(=O)Nc3ccc(F)cc3)cc2C1=O", "values": [{"measurement": "RP-LC retention time", "value": 754, "unit": "s"}]}
{"smiles": "O=C(CC(c1cccs1)N1Cc2ccccc2C1=O)N1CCN(c2ccccn2)CC1", "note": "(stereo unspecified)", "values": [{"measurement": "RP-LC retention time", "value": 632, "unit": "s"}]}
{"smiles": "OC[C@@H]1CN(Cc2ccc(OC(F)(F)F)cc2)C[C@H]1c1ccncc1", "values": [{"measurement": "RP-LC retention time", "value": 521, "unit": "s"}]}
{"smiles": "NS(=O)(=O)c1ccc(CCNCc2ccc(-c3ccc(Cl)cc3Cl)o2)cc1", "values": [{"measurement": "RP-LC retention time", "value": 800, "unit": "s"}]}
{"smiles": "Cc1ccc(S(=O)(=O)N2CCCC2c2nc(-c3ccc(Cl)cc3)no2)cc1C", "note": "(stereo unspecified)", "values": [{"measurement": "RP-LC retention time", "value": 1300, "unit": "s"}]}
{"smiles": "O=C(Oc1ccc[nH]c1=O)c1cccc(Cl)c1", "values": [{"measurement": "RP-LC retention time", "value": 756, "unit": "s"}]}
{"smiles": "CC(=O)N1CCC(C(=O)Nc2nnc(C3CC3)s2)CC1", "values": [{"measurement": "RP-LC retention time", "value": 605, "unit": "s"}]}
{"smiles": "CCOC(=O)CNC(=O)NCCn1c(-c2ccc(F)cc2)nc2ccccc21", "values": [{"measurement": "RP-LC retention time", "value": 592, "unit": "s"}]}
{"smiles": "CC1CCN(c2nccnc2Oc2ccc(C(=O)Nc3ccc4c(c3)OCCO4)cc2)CC1", "values": [{"measurement": "RP-LC retention time", "value": 1080, "unit": "s"}]}
{"smiles": "COCc1ncc(C)n1C1CCN(C(=O)c2noc(C)c2Cc2c(C)noc2C)C1", "note": "(stereo unspecified)", "values": [{"measurement": "RP-LC retention time", "value": 617, "unit": "s"}]}
{"smiles": "COc1ccc(NS(=O)(=O)c2cc(-c3[nH]ncc3C(=O)N(C)C)oc2C)cc1", "values": [{"measurement": "RP-LC retention time", "value": 658, "unit": "s"}]}
{"smiles": "CCc1ccc(NC(=O)Cn2c(=O)nc(N3CCCC(C)C3)c3ccccc32)cc1", "note": "(stereo unspecified)", "values": [{"measurement": "RP-LC retention time", "value": 905, "unit": "s"}]}
{"smiles": "Cc1ccc(Cn2c(C)c3cnn(CC(=O)NCC4CCCO4)c(=O)c3c2C)cc1", "note": "(stereo unspecified)", "values": [{"measurement": "RP-LC retention time", "value": 780, "unit": "s"}]}
{"smiles": "O=C(CSCCc1ccccn1)Nc1c(F)c(F)c(F)c(F)c1F", "values": [{"measurement": "RP-LC retention time", "value": 643, "unit": "s"}]}
{"smiles": "COc1ccc(C2Cn3nnc(-c4nc(-c5cccc(C(F)(F)F)c5)no4)c3CO2)cc1", "note": "(stereo unspecified)", "values": [{"measurement": "RP-LC retention time", "value": 1270, "unit": "s"}]}
{"smiles": "CN1C(=O)C2CCCCN2c2ccc(C(=O)N3CCC(Cc4ccccc4)CC3)cc21", "note": "(stereo unspecified)", "values": [{"measurement": "RP-LC retention time", "value": 1110, "unit": "s"}]}
{"smiles": "COc1cccc(NC(=O)C2CCN(S(=O)(=O)c3ccc4[nH]c(=O)sc4c3)CC2)c1", "values": [{"measurement": "RP-LC retention time", "value": 783, "unit": "s"}]}
{"smiles": "Cn1ncc(N2CCCC(CC(=O)O)C2)cc1=O", "note": "(stereo unspecified)", "values": [{"measurement": "RP-LC retention time", "value": 613, "unit": "s"}]}
